Patent US8535689B2, “Identification of bacterial autoinducer and use in treating bacterial pathogenicity” (priority 2007, dated 2013)
“Also recorded” adds a separate entry of the source.

How the values were obtained:
[1] = tested on: CAI-1 reporter strain MM920 (V. cholerae El Tor C6706str ΔcqsA ΔluxQ/pBB1 (luxCDABE from V. harveyi)); assay: Bioluminescence assay in V. cholerae CAI-1 reporter strain MM920; type: cell-based, Vibrio cholerae; conditions: for bioluminescence as a percentage of the bioluminescence activity of the V. cholerae CAI-1 autoinducer: reporter strain MM920, reference (S)-3-hydroxytridecan-4-one (CAI-1), FIG. 13; for activation of the V. cholerae quorum sensing circuit: to different degrees, pattern C13(5)>C13(R)>C12(S)≈C12(R)>C11(S)>C11(R); for activation of the V. cholerae quorum sensing circuit / fold greater biological activity than the molecule one carbon shorter: FIG. 3; for fold greater biological activity than the molecule one carbon shorter: side chain length comparison
Method: CAI-1 Purification from E. coli. V. cholerae cqsA (VCA0523) was cloned into pTrc99A and transformed into E. coli strain DH5α. The recombinant strain was grown at room temperature with aeration in 2.4 L of M9 medium supplemented with glucose (4 g/L), leucine (0.5 g/L), and ampicillin (0.1 g/L). cqsA expression was induced for 16 h with 0.5 mM IPTG. Following centrifugation at 10,000×g and passage through a 0.22 μm filter, the cell-free culture fluid was mixed with 0.6 v dichloromethane (DCM) in a reparatory funnel. The organic phase was isolated, evaporated, and assayed for CAI-1 activity using the bioluminescent V. cholerae CAI-1 reporter strain MM920 (V. cholerae El Tor C67O6str ΔcqsA ΔluxQ/pBB1 (luxCDABE from V. harveyi)), as described in Miller et al. (2002). The extract was dissolved in DCM and further purified by passage through silica gel with 0.5 L of 7:3 DCM:methanol, followed by concentration via evaporation. 50-100 mg of the concentrate was dissolved in ˜1 mL DCM, injected onto a (2×25-cm) ethyl-pyridine HPLC column, and eluted using a gradient of increasing ethyl acetate in hexanes (0-80%) at 20 mL/min. Fractions were tested for CAI-1 activity; active fractions were pooled.
Bioluminescence Assays. When assaying column fractions for autoinducer activity, 5% of each fraction was evaporated and dissolved in a mixture of water:acetonitrile (2:1). This preparation was added at 2% volume to the CAI-1 reporter strain MM920 (V. cholerae El Tor C67O6str ΔcqsA ΔluxQ/pBB1 (luxCDABE from V. harveyi)) according to previously described methods, as described in Miller et al. (2002). Synthetic CAI-1 preparations were dissolved in DMSO and supplied at 0.5% total volume to MM920 at specified concentrations.
[…]. Bioluminescence measurements at varying concentrations of analogue (generally from […]) were measured using a Wallac EnVision 2103 Multilabel Reader (Perkin Elmer, Waltham, Mass.).

[2] = tested on: TcpA, a subunit of the toxin co-regulated pilus (TCP); assay: Western blot of TcpA production in V. cholerae strains treated with synthetic CAI-1; type: cell-based, Vibrio cholerae; conditions: ΔluxQ
Excerpt: Western Blot Analysis. […]. Anti-TcpA antibody and Anti-Rabbit IgG Horseradish Peroxidase Conjugate (Promega) were used with the SuperSignal West Pico Chemiluminescent Substrate (Pierce) system.
Results. A major goal of quorum-sensing research is to develop strategies to artificially manipulate quorum-sensing-controlled processes in bacteria. […]. Proc. Natl. Acad. Sci. USA 84, 2833-2837 (1987), hereby incorporated by reference into this application. […]. […]. Importantly, synthetic CAI-1 had no effect on TcpA production in a ΔluxQ, ΔcqsS strain, which cannot respond to either CAI-1 or AI-2 (FIG. 4b, bottom row). […]

[3] = CAI-1 thermal stability, read with the V. cholerae bioluminescence assay; type: physicochemical; conditions: pH 7 phosphate buffer, FIG. 6a
Method: CAI-1 stock in DMSO was diluted 1:128 into 10 mM potassium phosphate buffer at pH 7 to a final autoinducer concentration of 400 μM. Samples were incubated for specified lengths of time, chilled briefly on ice, and frozen in dry ice/ethanol. Samples were thawed, diluted 1:3 in the same phosphate buffer, and read with the V. cholerae bioluminescence assay. Diluted sample was added at 2.5% of reporter culture volume, for final concentrations of 3.3 μM CAI-1 and 250 μM potassium phosphate.

[4] = tested on: E. coli KX1200 (MG1655 ΔluxS); assay: CAI-1 stability in culture with E. coli cells; type: in vitro ADME, Escherichia coli; conditions: E. coli ΔluxS in LB, 37° C. overnight, 10 μM CAI-1; FIG. 6d
Method: (§1) Early stationary phase E. coli KX1200 (MG1655 ΔluxS) and V. cholerae BH1575 (El Tor C6706str ΔluxS ΔcqsA) were diluted to OD 0.1 in LB medium. Along with sterile LB medium, they were shaken overnight at 37° C. with and without 10 μM CAI-1 supplementation. Culture and LB samples were centrifuged at 10,000×g, filtered with 0.22 μm filters, and read at 10% final culture volume using the V. cholerae CAI-1 reporter bioassay.

[5] = tested on: V. cholerae BH1575 (El Tor C6706str ΔluxS ΔcqsA); assay: CAI-1 stability in culture with V. cholerae cells; type: in vitro ADME, Vibrio cholerae; conditions: V. cholerae ΔluxS ΔcqsA in LB, 37° C. overnight, 10 μM CAI-1; FIG. 6d
Method: as §1

[6] = CAI-1 pH stability, read with the V. cholerae bioluminescence assay; type: physicochemical; conditions: pH 2, 4, 6, 7, 8, 10, 12 potassium phosphate buffer; 5, 20, 60 minutes or overnight; FIG. 6b
Method: CAI-1 stock in DMSO was diluted 1:128 into 100 mM potassium phosphate buffer at specified pH values to a final autoinducer concentration of 400 μM. Following incubation at room temperature for specified times, samples were neutralized with an equal volume of 100 mM potassium phosphate buffer (e.g. pH 10 buffer was added to pH 4 buffered autoinducer). Neutralized samples, now with 200 μM CAI-1, were chilled briefly on ice and frozen in dry ice/ethanol. Autoinducer samples were thawed, diluted 1:3 in 100 mM pH 7 potassium phosphate buffer, and read with the V. cholerae bioluminescence assay. Diluted sample was added at 5% of reporter culture volume, for final concentrations of 3.3 μM CAI-1 and 5 mM potassium phosphate.

Compound: [2H]C([2H])(C)C(O)C(=O)CCCCCCCCC (stereo not drawn) [2,2-D2-3-hydroxytridecan-4-one]
- bioluminescence as a percentage of the bioluminescence activity of the V. cholerae CAI-1 autoinducer [1]: equivalent activity to CAI-1

Compound: CCCCCCCC(=O)[C@H](O)CC [C11(R), (R)-3-hydroxyundecan-4-one]
- activation of the V. cholerae quorum sensing circuit [1]: activated

Compound: CCCCCCCC(=O)[C@@H](O)CC [C11(S), (S)-3-hydroxyundecan-4-one]
- activation of the V. cholerae quorum sensing circuit [1]: activated

Compound: CCCCCCCCCC(=O)[C@@H](O)CC [CAI-1, (S)-3-hydroxytridecan-4-one]
- TcpA production ([2]; cqsA+ V. cholerae strain, FIG. 4b middle row): repress TcpA production; also recorded: decreased
- TcpA production ([2]; ΔcqsA V. cholerae strain, CAI-1 at concentrations up to 10 μM, FIG. 4b top row): repress TcpA production; also recorded: substantially repressed
- TcpA production ([2]; ΔcqsS V. cholerae strain, FIG. 4b bottom row): no effect
- heat stability ([3]; high temperatures (up to 80° C.)): subject to degradation
- heat stability ([3]; physiologically relevant temperatures, 5, 20, 60 minutes or overnight): heat stable
- effect of cells on CAI-1 levels [4]: do not adversely affect CAI-1 levels
- effect of cells on CAI-1 levels [5]: do not adversely affect CAI-1 levels
- pH stability [6]: stable under a wide range of pH values
- bioluminescence as a percentage of the bioluminescence activity of the V. cholerae CAI-1 autoinducer [1]: 100%
- activation of the V. cholerae quorum sensing circuit [1]: activated

Compound: CCCCCCCCC(=O)[C@@H](O)CC [Compound 5, (S)-3-hydroxydodecan-4-one]
- bioluminescence as a percentage of the bioluminescence activity of the V. cholerae CAI-1 autoinducer [1]: twenty
- activation of the V. cholerae quorum sensing circuit [1]: activated

Compound: CCCCCCCCC(=O)[C@H](O)CC [Compound 6, (R)-3-hydroxydodecan-4-one]
- bioluminescence as a percentage of the bioluminescence activity of the V. cholerae CAI-1 autoinducer [1]: twenty
- activation of the V. cholerae quorum sensing circuit [1]: activated

Compound: CCCCCCCCCC(=O)[C@H](O)CC [Compound 7, (R)-3-hydroxytridecan-4-one]
- bioluminescence as a percentage of the bioluminescence activity of the V. cholerae CAI-1 autoinducer [1]: forty
- activation of the V. cholerae quorum sensing circuit [1]: activated

Compound: CCCCCCCCCC(=O)C(=O)CC [Compound 10, tridecane-3,4-dione]
- bioluminescence as a percentage of the bioluminescence activity of the V. cholerae CAI-1 autoinducer [1]: ten
- bioluminescence as a percentage of the bioluminescence activity of the V. cholerae CAI-1 autoinducer ([1]; listed as tridecan-3,4-dione): 10%

Compound: CCCCCCCCCC(=O)C(N)CC.Cl (stereo not drawn) [Compound 22, 3-aminotridecan-4-one hydrochloride]
- bioluminescence as a percentage of the bioluminescence activity of the V. cholerae CAI-1 autoinducer [1]: equivalent activity to CAI-1

Compound: CCCCCCCCCC(=O)C(O)CC (stereo not drawn) [thirteen-carbon molecule, 3-hydroxytridecan-4-one]
- fold greater biological activity than the molecule one carbon shorter [1]: 8 fold

Compound: CCCCCCCCC(=O)C(O)CC (stereo not drawn) [twelve-carbon molecule, 3-hydroxydodecan-4-one]
- fold greater biological activity than the molecule one carbon shorter [1]: 8 fold
